Literature values, collected in patent US7205293B2, “Benodiazepine spirohydantoin CGRP receptor antagonists” (Merck & Co., Inc., priority 2003, dated 2007).
No end group written: not given here.

What was measured:
facial blood flow [1] = settings: rat, trigeminal ganglion stimulation
[2] = system: middle meningeal artery diameter; settings: rats, electrical stimulation of the dura mater, prior administration
facial blood flow [3] = settings: marmoset, electrical stimulation of the trigeminal ganglion

Compound | effect on increase of facial blood flow (facial blood flow [1]) | effect on increase of middle meningeal artery diameter [2] | effect on increase in facial blood flow (facial blood flow [3])
CGRP(8–37): a peptide CGRP antagonist (VTHRLAGLLSRSGGVVKNNFVPTNVGSKAF; ends and bridges not checked; UniProt P06881 90-119, looked up, fragment) | inhibited | blocked | –
NCCCC[C@H](NC(=O)[C@@H](Cc1cc(Br)c(O)c(Br)c1)NC(=O)N1CCC(N2Cc3ccccc3NC2=O)CC1)C(=O)N1CCN(c2ccncc2)CC1 [BIBN4096BS] | – | – | blocked
